Experimental data published in US10710962B2, “Zwitterionic reagents” (Siemens Healthcare Diagnostics Inc., priority 2010, dated 2020).

Molecular target: T1, BSA-NSP-DMAE (Bos taurus, UniProt P02769)
T1 construct: NSP-DMAE acridinium ester (chemical label attached through an amine-reactive NHS ester, about 1.4 per molecule)
Assay: Zwitterion label incorporation into acridinium ester labeled BSA, measured by MALDI-TOF mass spectroscopy
Parameters: species or system bovine
Method: The zwitterion-containing compounds of the present invention may also be useful for lowering the non-specific binding of hydrophobic and ‘sticky’ proteins. In one experiment, the chemical competency of certain exemplary amine-reactive zwitterion-containing compounds shown in FIG. 1 were evaluated by treating an acridinium ester (e.g., 2′,6′-Dimethyl-4′-(N-succinimidyloxycarbonyl)phenyl 10-Methyl-9-acridinecarboxylate Methylsulfate (NSP-DMAE) or other suitable acridinium esters described by Law et al. in U.S. Pat. No. 5,656,426, which is incorporated herein by reference) labeled bovine serum albumin (BSA) or bovine gamma globulin (BGG) with 10 and 20 equivalents of the zwitterion-containing compound followed by measurement of the zwitterion-containing compound incorporation by mass spectroscopy. The detailed experimental protocol is described in Example 15.
A solution of BSA (4 mg, 60 nmoles) in 1 mL of 0.1 M sodium bicarbonate was treated with 5 equivalents of 2′,6′-Dimethyl-4′-(N-succinimidyloxycarboxnyl)phenyl 10-(3′-Sulfopropyl)-acridinium-9-carboxylate (NSP-DMAE-NHS) added as a solution in DMF (72 μL of a 2 mg/mL solution in DMF). The reaction was stirred at room temperature for 4 hours. The reaction was then transferred to a 4 mL amicon filter (MW 30,000 cutoff) and diluted with 3 mL de-ionized water. The filter was centrifuged at 4000G for 8 minutes to reduce the volume to about 0.25 mL. The final conjugate was diluted to 0.8 mL with de-ionized water to give a 5 mg/mL solution. Acridinium ester label incorporation, measured by MALDI-TOF mass spectroscopy using sinnapinic acid as matrix indicated the incorporation of 1.4 labels.
Further labeling of the acridinium ester-labeled BSA conjugate with the zwitterion labels 1d, 2c, 3c and 4c was carried out as follows. The conjugate (0.5 mg, 7.5 nmoles, 100 μL) was diluted with 100 μL of sodium carbonate, pH 9. To this conjugate, in four separate reactions, was added 10 equivalents of the four zwitterion labels 1d, 2c, 3c and 4c dissolved in DMSO corresponding to 12.8 μL of a 2.5 mg/mL solution of 1d; 16.5 μL of a 2 mg/mL solution of 2c; 16.5 μL of a 2 mg/mL solution of 3c and 14 μL of a 2.5 mg/mL solution of 4c. The reactions were stirred at room temperature for 4 hours and were then processed as described above.

T1 sequence (P02769 25-607): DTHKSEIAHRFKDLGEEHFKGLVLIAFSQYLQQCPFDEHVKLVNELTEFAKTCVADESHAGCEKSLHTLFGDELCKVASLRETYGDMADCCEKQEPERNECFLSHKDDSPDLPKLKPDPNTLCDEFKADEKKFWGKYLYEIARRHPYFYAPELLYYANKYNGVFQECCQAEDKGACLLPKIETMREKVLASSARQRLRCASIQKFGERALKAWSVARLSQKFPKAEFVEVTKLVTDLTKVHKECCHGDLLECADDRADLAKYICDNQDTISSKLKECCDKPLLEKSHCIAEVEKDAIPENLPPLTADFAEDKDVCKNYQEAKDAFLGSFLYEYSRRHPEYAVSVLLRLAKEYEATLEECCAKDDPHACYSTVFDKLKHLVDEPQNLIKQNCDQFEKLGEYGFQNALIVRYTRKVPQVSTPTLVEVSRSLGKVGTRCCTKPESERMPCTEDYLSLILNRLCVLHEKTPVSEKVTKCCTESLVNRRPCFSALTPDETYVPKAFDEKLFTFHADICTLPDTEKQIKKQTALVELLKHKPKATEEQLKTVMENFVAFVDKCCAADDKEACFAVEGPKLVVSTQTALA

## C[N+](C)(CCCC(=O)Oc1c(F)c(F)c(F)c(F)c1F)CCS(=O)(=O)[O-] [Compound 1d]
Input 10 equivalents
  # of Zwitterion-Containing Compounds Incorporated by Conjugate: 5

## CCCOP(=O)([O-])OCC[N+](C)(C)CCCC(=O)Oc1c(F)c(F)c(F)c(F)c1F [Compound 4c]
Input 10 equivalents
  # of Zwitterion-Containing Compounds Incorporated by Conjugate: 3.4
Input 20 equivalents
  # of Zwitterion-Containing Compounds Incorporated by Conjugate: 7.1

## C[N+](C)(CCCCS(=O)(=O)[O-])CCCC(=O)Oc1c(F)c(F)c(F)c(F)c1F [Compound 3c]
Input 10 equivalents
  # of Zwitterion-Containing Compounds Incorporated by Conjugate: 3.3

## C[N+](C)(CCCC(=O)Oc1c(F)c(F)c(F)c(F)c1F)CCCS(=O)(=O)[O-] [Compound 2c]
Input 10 equivalents
  # of Zwitterion-Containing Compounds Incorporated by Conjugate: 5
Input 20 equivalents
  # of Zwitterion-Containing Compounds Incorporated by Conjugate: 8
